Laboratory results as given in patent US20100093861A1, “TREATMENT OF INSULIN RESISTANCE OR DISEASES ASSOCIATED WITH INSULIN RESISTANCE” (Stevia ApS, priority 2006, published 2010).

What was measured:
[1] = tested on: Akt1; assay: Affymetrix gene chip analysis of KKAy islets: Akt1; format: in vivo, mice; conditions: ISV vs. KKAy control islets, 9 weeks
Method: cRNA preparation and in vitro transcription: In total 6 Affymetrix arrays MOE430 2.0 probe array cartridge were used i.e. for analysis of 3 replicas for the KKAy control group and the ISV group, respectively. Each of the 6 samples consisted of pooled RNA from 3-4 KKAy mice. Preparation of target for hybridization was prepared from 340 ng of total RNA using MessageAmp™ II aRNA Amplification Kits (Ambion), according to the manufacturers instructions. Arrays were hybridised and scanned as described elsewhere (Kruhoffer et al., 2005).

[2] = tested on: total insulin protein content of KKAy islets; assay: Insulin content of isolated islets from KKAy mice (RIA); format: in vivo; conditions: KKAy mice after 9 weeks treatment
Method: The Insulin content of isolated islet from the KKAy mice was measured using RIA as described for the Insulin assay. Total islet protein was purified from the organic phase during from the RNA Trizol preparation according to the manufactures instruction (Gibco BRL, Life Technologies, Roskilde, DK).
In order to clarify if this increased levels of Ins1 mRNA are translated, the total insulin content from the very limited protein fraction collected from the organic phase during RNA preparation from isolated islets from the KKAY and ISV group was measured using RIA (FIG. 17). The insulin content from the ISV group compared to the KKAy control was 2.4 fold (p=0.003) higher, supporting the gene expression analysis.

Structure (SMILES): C[C@@]12CC[C@@H]3[C@@](CC[C@H]4[C@@]3(C)CCC[C@@]4(C)C(=O)O)(CC1=O)C2 (single isomer, unassigned; ent-16) [ISV, ent-16-ketobeyeran-19-oic acid]
- array: change of Akt1 expression [1]: no changes
- insulin content of islets compared to the KKAy control, higher [2]: 2.4 fold
